Data reported in patent US12134788B2, “Engineered prephenate dehydrogenases and arogenate dehydrogenases and methods of using the same” (Wisconsin Alumni Research Foundation, priority 2017, dated 2024).
Values joined by “and” are separate entries in the source; they are usually repeats but may differ in a detail not shown here. Equal entries are not always repeated.

Columns and labels:
[1] = target: T1, Glycine max GmncADH variant D218N (Glycine max, UniProt I1M7P5, D218N); assay: ADH and PDH assay: steady-state kinetics and Tyr inhibition, GmncADH D218N; type: biochemical, Glycine max (soybean); settings: versus wild-type GmncADH
T1 construct: D218N by site-directed mutagenesis
T1 sequence (I1M7P5 1-266 D218N): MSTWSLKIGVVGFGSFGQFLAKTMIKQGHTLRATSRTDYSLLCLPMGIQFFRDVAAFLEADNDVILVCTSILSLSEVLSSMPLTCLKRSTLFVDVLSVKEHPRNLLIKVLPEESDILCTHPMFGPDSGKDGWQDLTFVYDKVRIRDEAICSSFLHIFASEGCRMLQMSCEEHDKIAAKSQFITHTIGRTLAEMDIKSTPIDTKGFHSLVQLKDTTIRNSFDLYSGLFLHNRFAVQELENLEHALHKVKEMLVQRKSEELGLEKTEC
Protocol: (§1) Kinetic parameters of purified recombinant proteins were determined from assays conducted at varying arogenate (19.5 μM-5 mM) and prephenate concentration (23.4 μM-6 mM). Standard assay conditions were 25 mM HEPES pH 7.6, 50 mM KCl and 10% (v/v) ethylene glycol, and 0.5 mM NADP^+ with varied substrate, concentrations. Reactions were initiated by addition of enzyme and incubated at 37° C. monitored every 10-15 seconds at […] using a microplate reader (Tecan Genios). Kinetic parameters were determined by fitting initial velocity data to the Michaelis-Menten equation using the Origin software (OriginLab).
(§2) Arogenate was prepared by enzymatic conversion of prephenate (Sigma-Aldrich) as previously reported^56. For Tyr inhibition assays, Tyr was dissolved in a slightly basic solution (0.025 N NaOH) due to solubility issues, thus the concentration of lysis buffer was increased to 500 mM HEPES final concentration to buffer against the changes by addition of Tyr in the reaction. Reactions containing varying amounts of Tyr (10 μM-8 mM) with 0.5 mM NADP^+ and either 1 mM arogenate or 0.8 mM prephenate were monitored as above.

[2] = target: T2, Glycine max GmPDH1 variant N222D, SEQ ID NO: 2 (Glycine max, UniProt I1MYY4, N222D); assay: ADH and PDH assay: steady-state kinetics and Tyr inhibition, GmPDH1 N222D; type: biochemical, Glycine max (soybean); settings: 0.5 mM NADP^+, pH 7.6, 37° C.
T2 sequence (I1MYY4 1-271 N222D): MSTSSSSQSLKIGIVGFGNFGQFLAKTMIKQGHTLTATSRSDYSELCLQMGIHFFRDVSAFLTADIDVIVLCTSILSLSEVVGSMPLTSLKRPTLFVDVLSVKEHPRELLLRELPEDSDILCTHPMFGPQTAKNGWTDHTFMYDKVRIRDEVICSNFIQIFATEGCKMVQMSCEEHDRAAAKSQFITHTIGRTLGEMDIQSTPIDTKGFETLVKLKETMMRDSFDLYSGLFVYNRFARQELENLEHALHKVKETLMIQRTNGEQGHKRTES
Protocol: as §1, §2

[3] = target: T3, Medicago truncatula MtPDH variant C220D, SEQ ID NO: 1 (Medicago truncatula, UniProt A0A0A0R205, C220D); assay: ADH and PDH assay: steady-state kinetics and Tyr inhibition, MtPDH C220D; type: biochemical; settings: compared to wild-type MtPDH
T3 sequence (A0A0A0R205 1-268 C220D): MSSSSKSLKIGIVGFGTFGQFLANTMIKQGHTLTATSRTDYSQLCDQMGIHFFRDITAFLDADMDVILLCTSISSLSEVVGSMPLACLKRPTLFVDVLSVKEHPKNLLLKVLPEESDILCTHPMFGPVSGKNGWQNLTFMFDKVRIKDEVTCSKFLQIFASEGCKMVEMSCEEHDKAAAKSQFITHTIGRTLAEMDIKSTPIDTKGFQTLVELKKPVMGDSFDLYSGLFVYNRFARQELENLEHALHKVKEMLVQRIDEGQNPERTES
Protocol: as §1, §2

[4] = target: T4, MtncADH (Mt5g083530), Medicago truncatula noncanonical arogenate dehydrogenase, wild type (Medicago truncatula, UniProt A0A217FAR3); assay: ADH and PDH assay: steady-state kinetics and Tyr inhibition, MtncADH wild type; type: biochemical; settings: kcat/Km
T4 construct: wild type
T4 sequence (A0A217FAR3 1-266): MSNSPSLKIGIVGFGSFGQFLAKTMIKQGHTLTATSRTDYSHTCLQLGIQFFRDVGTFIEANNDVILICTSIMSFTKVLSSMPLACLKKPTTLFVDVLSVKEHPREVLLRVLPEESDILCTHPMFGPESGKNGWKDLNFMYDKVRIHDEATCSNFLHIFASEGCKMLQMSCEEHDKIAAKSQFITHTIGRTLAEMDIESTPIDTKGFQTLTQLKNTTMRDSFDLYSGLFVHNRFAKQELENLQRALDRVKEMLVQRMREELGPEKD
Protocol: as §1, §2

[5] = system: Peanut PDH/ADH (AipaensisVYE8T), Arachis ipaensis, wild type; assay: ADH and PDH assay: steady-state kinetics and Tyr inhibition, peanut PDH/ADH; type: biochemical
Protocol: as §1, §2

[6] = system: Methanosaeta harundinacea MhTyrAp variant Q227E; assay: Kinetic analysis of MhTyrAp Q227E mutant; type: biochemical
Protocol: FIGS. 14A-14B show a kinetic analysis of MhTyrAp wild-type and Q227E mutant enzymes. Kinetic analysis was performed with MhTyrAp wild-type (filled circle) and Q227E mutant (open square) enzymes using various concentrations of prephenate (FIG. 14A) and arogenate (FIG. 14B). Initial velocity values at each substrate concentration were fit to the Michaelis-Menten equation using Origin software. Kinetic analyses were conducted for MhTyrA wild-type using 3.41 μg of purified recombinant enzyme, and 4.56 μg and 2.28 μg of purified recombinant Q227E using prephenate and arogenate, respectively.
(§3) ADH and PDH assays were performed using purified recombinant enzymes for SsTyrA and MhTyrA Wt and Q227E mutant, while the E. coli cell lysate was used for OiTyrA as expression and purification of this enzyme was unsuccessful. Reactions contained 0.8 mM substrate (arogenate or prephenate) and 0.8 mM cofactor (NADP+ or NAD+) together with reaction buffer (25 mM HEPES pH 7.6, 50 mM KCl, 10% (v/v) ethylene glycol). For OiTyrA assays containing cell lysates, reactions were incubated for 45 minutes and analyzed using HPLC as previously reported (Schenck et al., 2015). For pure enzymes, reactions were monitored every 10-15 seconds for reduced cofactor at A340 nm using a microplate reader (Tecan Genios). Kinetic parameters of purified recombinant enzymes were determined from assays containing varying concentrations of arogenate (39.1 μM-5 mM) or prephenate (39.1 μM-5 mM) substrate and monitored 10-15 seconds for reduced cofactor at A340 nm using a microplate reader (Tecan Genios). Kinetic parameters were determined by fitting initial velocity data to the Michaelis-Menten equation using Origin software (OriginLab) from technical replicate assays (n=3). Arogenate substrate was prepared by enzymatic conversion of prephenate (Sigma-Aldrich). All enzyme assays were conducted at a reaction time and protein concentration that were in the linear range and proportional to reaction velocity.

[7] = target: T5, GmncADH (Gm14g05990), soybean (Glycine max) noncanonical arogenate dehydrogenase, wild type (Glycine max, UniProt I1M7P5); assay: ADH and PDH assay: steady-state kinetics and Tyr inhibition, GmncADH wild type; type: biochemical; settings: 0.5 mM NADP^+, pH 7.6, 37° C.
T5 construct: wild type
T5 sequence (I1M7P5 1-266): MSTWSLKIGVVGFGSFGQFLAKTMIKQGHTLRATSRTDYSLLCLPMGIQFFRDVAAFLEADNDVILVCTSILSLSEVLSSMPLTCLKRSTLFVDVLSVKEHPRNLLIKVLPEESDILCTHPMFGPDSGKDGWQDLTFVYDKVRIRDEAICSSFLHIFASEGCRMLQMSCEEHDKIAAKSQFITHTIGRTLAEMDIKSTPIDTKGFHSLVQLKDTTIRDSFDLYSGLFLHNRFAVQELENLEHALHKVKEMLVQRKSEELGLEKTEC
Protocol: as §1, §2

[8] = arogenate versus prephenate, from references 29, 34; cited from earlier work
[9] = PDH assay of microbial TyrA enzymes (Example 2); type: biochemical; settings: 0.8 mM arogenate or prephenate, 0.8 mM cofactor
Protocol: as §3

[10] = ADH assay of microbial TyrA enzymes (Example 2); type: biochemical; settings: ADH activity, NADP+ versus NAD+, 0.8 mM
Protocol: as §3

## N[C@@H](CC1(C(=O)O)C=CC(O)C=C1)C(=O)O (some centres unmarked) [arogenate]
[1]
  fold reduction of kcat/Km for ADH: ~6 fold
[2]
  kcat: 27.8 s⁻¹
[3]
  fold lower Km: 3 fold
[4]
  fold more efficient (preference) with arogenate over prephenate: ~6,200 fold and 6,190 fold
[5]; 0.5 mM NADP^+, pH 7.6, 37° C.
  Km: 0.28 ± 0.03 mM
  kcat: 3.2 ± 0.1 s⁻¹
  kcat/Km: 11,430 M^−1 s^−1
[5]; FIG. 7A, with NADP^+
  kcat/Km: 11.6 mM⁻¹ s⁻¹
[6]
  fold higher Km than that of wild-type for prephenate: 10 fold
  fold higher catalytic efficiency with arogenate than with prephenate: roughly 2 fold
[6]; NADP+ cofactor, pH 7.6
  kcat: 0.704 ± 0.06 s⁻¹
  kcat/Km: 200 M⁻¹ s⁻¹ and 213 ± 10 M⁻¹ s⁻¹
[6]; NADP+ cofactor, pH 7.6, read-out: Km
  Km: 3.3 mM and 3.29 mM
[7]
  kcat: 27.7 s⁻¹

B1: AaPDH: prephenate dehydrogenase from Aquifex aeolicus, PDB 3GGG (protein)
chain: MQNVLIVGVGFMGGSFAKSLRRSGFKGKIYGYDINPESISKAVDLGIIDEGTTSIAKVEDFSPDFVMLSSPVRTFREIAKKLSYILSEDATVTDQGSVKGKLVYDLENILGKRFVGGHPIAGTEKSGVEYSLDNLYEGKKVILTPTKKTDKKRLKLVKRVWEDVGGVVEYMSPELHDYVFGVVSHLPHAVAFALVDTLIHMSTPEVDLFKYPGGGFKDFTRIAKSDPIMWRDIFLENKENVMKAIEGFEKSLNHLKELIVREAEEELVEYLKEVKIKRMEI
modifications: A. aeolicus; misc_feature (1)..(281): A.aeolicus AaPDH
notes: prephenate dehydrogenase from Aquifex aeolicus, PDB 3GGG
[8]
  substrate specificity (in words): prefers prephenate

B2: OiTyrA: TyrA from Ochrobactrum intermedium LMG 3301 (α-proteobacteria), E. coli cell lysate (protein)
chain: MRPLRGQSMSRDRNQHTKIGIIGFGAFGQLIARHLNPYFRLYAYDPAADLEQTALMHGVALASVEQVAACDIVILATPVATLESVVDKIAPHLCPGALVLDVGSVKVGPADIMRRGLPAHVDIVATHPLFGPQSARHGIAGLKIAVCPVRGTRFHRVAAFLKKHLSLNVIVTTPEDHDREAAMVQGLTHLIARVLVQMEPLPTRMTTKSFDLLMQAVSMVRHDAPEVFQAIEHANPYAPQVRRHFFALADQINEELARVQPMAAREEAA
modifications: O. intermedium; misc_feature (1)..(269): O. intermedium TyrA OiTyrA
notes: TyrA from Ochrobactrum intermedium LMG 3301 (α-proteobacteria), E. coli cell lysate
[9]
  ADH and PDH activity (in words): had ADH but not PDH activity
[10]
  cofactor preference (in words): strongly preferred NAD+
